Measured values: patent US8563553B2, “Compounds and compositions as protein kinase inhibitors” (Novartis AG, priority 2009, dated 2013)

Molecular target: b-Raf(V600E) (Homo sapiens (Human), UniProt P15056, V600E)
Test: Raf/Mek Amplified Luminescence Proximity Homogeneous Assay (Alpha Screen)
Type: biochemical
Settings: b-Raf(V600E) approximately 4 pM; biotinylated Mek, kinase dead approximately 10 nM; ATP 10 μM; pre-incubation 60 minutes; reaction 3 hours at room temperature; read-out: mut-B-RAF IC50
How it was run: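 Raf pre-incubated with compound and kinase-dead biotinylated Mek (~10 nM) for 60 min, room temperature, in 50 mM Tris pH 7.5, 15 mM MgCl2, 0.01% BSA, 1 mM DTT; ATP-started reaction 1 or 3 h, EDTA stop. Phospho-MEK detected by anti-p-MEK1/2 AlphaScreen; IC50 by non-linear regression.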

Sequence of b-Raf(V600E) (P15056 whole entry V600E): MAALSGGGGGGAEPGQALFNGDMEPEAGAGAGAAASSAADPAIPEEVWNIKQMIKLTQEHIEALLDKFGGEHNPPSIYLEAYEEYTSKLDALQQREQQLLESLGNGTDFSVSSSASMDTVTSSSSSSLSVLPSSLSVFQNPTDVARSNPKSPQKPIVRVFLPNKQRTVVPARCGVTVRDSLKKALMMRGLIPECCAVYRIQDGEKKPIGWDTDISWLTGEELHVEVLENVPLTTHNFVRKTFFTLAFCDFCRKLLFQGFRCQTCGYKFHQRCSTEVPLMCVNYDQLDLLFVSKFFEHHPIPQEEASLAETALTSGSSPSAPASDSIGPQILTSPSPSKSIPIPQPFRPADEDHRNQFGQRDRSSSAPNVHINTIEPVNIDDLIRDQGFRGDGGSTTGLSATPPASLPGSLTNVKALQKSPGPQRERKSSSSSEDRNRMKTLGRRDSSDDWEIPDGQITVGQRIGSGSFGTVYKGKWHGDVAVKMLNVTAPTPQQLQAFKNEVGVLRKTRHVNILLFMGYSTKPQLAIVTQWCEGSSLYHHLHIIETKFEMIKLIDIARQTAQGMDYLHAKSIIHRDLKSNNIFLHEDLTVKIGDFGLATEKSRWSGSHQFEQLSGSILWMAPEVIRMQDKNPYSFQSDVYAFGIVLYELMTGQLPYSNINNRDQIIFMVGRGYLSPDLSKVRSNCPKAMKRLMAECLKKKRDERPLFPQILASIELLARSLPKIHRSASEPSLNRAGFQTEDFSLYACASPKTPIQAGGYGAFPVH

SMILES	IC50 [nM]
COC(=O)N[C@@H](C)CNc1nccc(-c2[nH]c(C(C)(C)C)nc2-c2cccc(NS(C)(=O)=O)c2F)n1 [Example 2C, (S)-Methyl 1-(4-(2-tert-butyl-4-(2-fluoro-3-(methylsulfonamido)phenyl)-1H-imidazol-5-yl)pyrimidin-2-ylamino)propan-2-ylcarbamate]	0.61
CCCS(=O)(=O)Nc1cccc(-c2nc(C3CC3)[nH]c2-c2ccnc(NC[C@H](C)NC(=O)OC)n2)c1 [Example 4J, (S)-Methyl 1-(4-(2-cyclopropyl-4-(3-(propylsulfonamido)phenyl)-1H-imidazol-5-yl)pyrimidin-2-ylamino)propan-2-ylcarbamate]	1
CCCNc1nccc(-c2[nH]c(C3CC3)nc2-c2cc(F)cc(NS(C)(=O)=O)c2Cl)n1 [Example 1AP, N-(2-Chloro-3-(2-cyclopropyl-5-(2-(propylamino)pyrimidin-4-yl)-1H-imidazol-4-yl)-5-fluorophenyl)methanesulfonamide]	5
CS(=O)(=O)Nc1cccc(-c2nc(C3CC3)[nH]c2-c2ccnc(NCC3(C#N)CC3)n2)c1Cl [Example 2G, N-(2-Chloro-3-(5-(2-((1-cyanocyclopropyl)methylamino)pyrimidin-4-yl)-2-cyclopropyl-1H-imidazol-4-yl)phenyl)methanesulfonamide]	35
COC(=O)N[C@@H](C)CNc1nccc(-c2nc(C3(C)CC3)[nH]c2-c2cc(Cl)cc(NS(C)(=O)=O)c2F)n1 [Example 1AL]	1
COC(=O)N[C@@H](C)CNc1nccc(-c2[nH]c(C3CC3)nc2-c2cc(C)cc(NS(C)(=O)=O)c2Cl)n1 [Example 1AB, (S)-Methyl 1-(4-(4-(2-chloro-5-methyl-3-(methylsulfonamido)phenyl)-2-cyclopropyl-1H-imidazol-5-yl)pyrimidin-2-ylamino)propan-2-ylcarbamate]	1.1
COC(=O)N[C@@H](C)CNc1nccc(-c2[nH]c(-c3ccc(F)cc3F)nc2-c2cc(F)cc(NS(C)(=O)=O)c2Cl)n1 [Example 1BY]	2040
CS(=O)(=O)Nc1cccc(-c2nc(C3CC3)[nH]c2-c2ccnc(NCCC#N)n2)c1F [Example 2E, N-(3-(5-(2-(2-Cyanoethylamino)pyrimidin-4-yl)-2-cyclopropyl-1H-imidazol-4-yl)-2-fluorophenyl)methanesulfonamide]	4
COC(=O)N[C@H](C)CNc1nccc(-c2[nH]c(C3CC3)nc2-c2cc(F)cc(NS(C)(=O)=O)c2Cl)n1 [Example 1AV, (R)-Methyl 1-(4-(4-(2-chloro-5-fluoro-3-(methylsulfonamido)phenyl)-2-cyclopropyl-1H-imidazol-5-yl)pyrimidin-2-ylamino)propan-2-ylcarbamate]	11
COC(=O)N[C@@H](C)CNc1nccc(-c2[nH]c(C(C)(C)C)nc2-c2cccc(NS(C)(=O)=O)c2)n1 [Example 1R, (S)-Methyl 1-(4-(2-tert-butyl-4-(3-(methylsulfonamido)phenyl)-1H-imidazol-5-yl)pyrimidin-2-ylamino)propan-2-ylcarbamate]	34.5
COC(=O)N[C@@H](C)CNc1nccc(-c2[nH]c(C3CCC3)nc2-c2cc(F)cc(NS(C)(=O)=O)c2Cl)n1 [Example 1BU, (S)-Methyl 1-(4-(4-(2-chloro-5-fluoro-3-(methylsulfonamido)phenyl)-2-cyclobutyl-1H-imidazol-5-yl)pyrimidin-2-ylamino)propan-2-ylcarbamate]	1
CCNc1nccc(-c2[nH]c(C3CC3)nc2-c2cc(F)cc(NS(C)(=O)=O)c2Cl)n1 [Example 1AQ, N-(2-Chloro-3-(2-cyclopropyl-5-(2-(ethylamino)pyrimidin-4-yl)-1H-imidazol-4-yl)-5-fluorophenyl)methanesulfonamide]	11
COC(=O)N[C@@H](C)CNc1nccc(-c2[nH]c(C3CC3)nc2-c2cc(C)cc(NS(=O)(=O)C(C)C)c2)n1 [Example 4D, (S)-Methyl 1-(4-(2-cyclopropyl-4-(3-methyl-5-(1-methylethylsulfonamido)phenyl)-1H-imidazol-5-yl)pyrimidin-2-ylamino)propan-2-ylcarbamate]	0.96
COC(=O)N[C@@H](C)CNc1nccc(-c2[nH]c(C3CC3)nc2-c2c(F)ccc(NS(C)(=O)=O)c2Cl)n1 [Example 2F, Methyl (2S)-1-(4-(4-(2-chloro-6-fluoro-3-(methylsulfonamido)phenyl)-2-cyclopropyl-1H-imidazol-5-yl)pyrimidin-2-ylamino)propan-2-ylcarbamate]	5
CNc1nccc(-c2[nH]c(C3CC3)nc2-c2cccc(NS(C)(=O)=O)c2F)n1 [Example 3A-2, N-(3-(2-cyclopropyl-5-(2-(methylamino)pyrimidin-4-yl)-1H-imidazol-4-yl)-2-fluorophenyl)methanesulfonamide]	578
CC(C)CNc1nccc(-c2[nH]c(C3CC3)nc2-c2cc(F)cc(NS(C)(=O)=O)c2Cl)n1 [Example 1AR, N-(2-Chloro-3-(2-cyclopropyl-5-(2-(isobutylamino)pyrimidin-4-yl)-1H-imidazol-4-yl)-5-fluorophenyl)methanesulfonamide]	5

Stronger by IC50, values ahead:

IC50 [nM]	SMILES
0.47	COC(=O)N[C@@H](C)CNc1nccc(-c2[nH]c(C3CC3)nc2-c2cccc(NS(C)(=O)=O)c2Cl)n1 [Example 1T, (S)-Methyl 1-(4-(4-(2-chloro-3-(methylsulfonamido)phenyl)-2-cyclopropyl-1H-imidazol-5-yl)pyrimidin-2-ylamino)propan-2-ylcarbamate]
0.45	CCCS(=O)(=O)Nc1ccc(F)c(-c2nc(C3CC3)[nH]c2-c2ccnc(NC[C@H](C)NC(=O)OC)n2)c1Cl [Example 1AF, Methyl (2S)-1-(4-(4-(2-chloro-6-fluoro-3-(propylsulfonamido)phenyl)-2-cyclopropyl-1H-imidazol-5-yl)pyrimidin-2-ylamino)propan-2-ylcarbamate]
0.37	COC(=O)N[C@@H](C)CNc1nccc(-c2[nH]c(C3CC3)nc2-c2cc(Cl)cc(NS(=O)(=O)c3cc(F)cc(F)c3)c2F)n1 [Example 1BM, (S)-Methyl 1-(4-(4-(5-chloro-3-(3,5-difluorophenylsulfonamido)-2-fluorophenyl)-2-cyclopropyl-1H-imidazol-5-yl)pyrimidin-2-ylamino)propan-2-ylcarbamate]
0.28	COC(=O)N[C@@H](C)CNc1nccc(-c2[nH]c(C(C)(C)C)nc2-c2cc(Cl)cc(NS(C)(=O)=O)c2F)n1 [Example 1AI, (S)-Methyl 1-(4-(2-tert-butyl-4-(5-chloro-2-fluoro-3-(methylsulfonamido)phenyl)-1H-imidazol-5-yl)pyrimidin-2-ylamino)propan-2-ylcarbamate]
0.27	COC(=O)N[C@@H](C)CNc1nccc(-c2[nH]c(C(C)(C)C)nc2-c2cccc(NS(=O)(=O)C3CC3)c2F)n1 [Example 2B, (S)-Methyl 1-(4-(2-tert-butyl-4-(3-(cyclopropanesulfonamido)-2-fluorophenyl)-1H-imidazol-5-yl)pyrimidin-2-ylamino)propan-2-ylcarbamate]
0.24	CCS(=O)(=O)Nc1cc(Cl)cc(-c2[nH]c(C3CC3)nc2-c2ccnc(NC[C@H](C)NC(=O)OC)n2)c1F [Example 1Z, (S)-Methyl 1-(4-(5-(5-chloro-3-(ethylsulfonamido)-2-fluorophenyl)-2-cyclopropyl-1H-imidazol-4-yl)pyrimidin-2-ylamino)propan-2-ylcarbamate]
0.23	CC1(c2nc(-c3cc(F)cc(NS(C)(=O)=O)c3Cl)c(-c3ccnc(NCCC#N)n3)[nH]2)CC1 [Example 1AY, N-(2-Chloro-3-(5-(2-(2-cyanoethylamino)pyrimidin-4-yl)-2-(1-methylcyclopropyl)-1H-imidazol-4-yl)-5-fluorophenyl)methanesulfonamide]
0.2	COC(=O)N[C@@H](C)CNc1nccc(-c2[nH]c(C3CC3)nc2-c2cc(C)cc(NS(C)(=O)=O)c2F)n1 [Example 1B, (S)-methyl 1-(4-(2-cyclopropyl-4-(2-fluoro-5-methyl-3-(methylsulfonamido)phenyl)-1H-imidazol-5-yl)pyrimidin-2-ylamino)propan-2-ylcarbamate]
0.2	COC(=O)N[C@@H](C)CNc1nccc(-c2[nH]c(C3CC3)nc2-c2cc(Cl)cc(NS(C)(=O)=O)c2F)n1 [Example 1A, (S)-methyl 1-(4-(4-(5-chloro-2-fluoro-3-(methylsulfonamido)phenyl)-2-cyclopropyl-1H-imidazol-5-yl)pyrimidin-2-ylamino)propan-2-ylcarbamate]
0.19	Nc1nccc(-c2[nH]c(C3CC3)nc2-c2cc(F)cc(NS(=O)(=O)c3c(F)cccc3F)c2Cl)n1 [Example 1BR, N-(3-(5-(2-Aminopyrimidin-4-yl)-2-cyclopropyl-1H-imidazol-4-yl)-2-chloro-5-fluorophenyl)-2,6-difluorobenzenesulfonamide]
0.18	COC(=O)N[C@@H](C)CNc1nccc(-c2[nH]c(C3CC3)nc2-c2cc(Cl)cc(NS(C)(=O)=O)c2Cl)n1 [Example 1X, (S)-Methyl 1-(4-(2-cyclopropyl-4-(2,5-dichloro-3-(methylsulfonamido)phenyl)-1H-imidazol-5-yl)pyrimidin-2-ylamino)propan-2-ylcarbamate]
0.1	CCS(=O)(=O)Nc1cc(Cl)cc(-c2nc(C(C)(C)C)[nH]c2-c2ccnc(NC[C@H](C)NC(=O)OC)n2)c1 [Example 1I, (S)-Methyl 1-(4-(2-tert-butyl-4-(3-chloro-5-(ethylsulfonamido)phenyl)-1H-imidazol-5-yl)pyrimidin-2-ylamino)propan-2-ylcarbamate]
